Assay results taken from ChEMBL document CHEMBL4385621, “Synthesis and in vitro cytotoxicity evaluation of β-carboline-combretastatin carboxamides as apoptosis inducing agents: DNA intercalation and topoisomerase-II inhibition” (Bioorg Med Chem, 2019).
Calls of active or inactive are those of the source. No cut-off for these calls is given here.

Tests used:
HeLa = assay: Antiproliferative activity against human HeLa cells assessed as reduction in cell viability after 48 hrs by SRB assay; assay type: functional, cell-based
DU-145 = assay: Antiproliferative activity against human DU145 cells assessed as reduction in cell viability after 48 hrs by SRB assay; assay type: functional, cell-based; settings: DU-145, 48 h
A549 [1] = assay: Antiproliferative activity against human A549 cells assessed as reduction in cell viability after 48 hrs by SRB assay; assay type: functional, cell-based; settings: A549, 48 h
A549 [2] = assay: Cell cycle arrest in human A549 cells assessed as increase in accumulation of G2/M phase at 1 to 5 uM after 24 hrs by propidium iodide staining based flow cytometric analysis; assay type: functional
A549 [3] = assay: Cell cycle arrest in human A549 cells assessed as reduction in G0/G1 phase at 1 to 5 uM after 24 hrs by propidium iodide staining based flow cytometric analysis; assay type: functional
[4] = target: DNA topoisomerase II (Homo sapiens) (UniProt P11388+Q02880); assay: Inhibition of human topoisomerase-2 assessed as reduction in decatenation of kDNA at 10 uM incubated for 30 mins by ethidium bromide staining based agarose gel electrophoresis method; assay type: protein assay
A549 [5] = assay: Induction of apoptosis in human A549 cells assessed as reduction in cell viability at 1 to 5 uM after 24 hrs by phase contrast microscopic method; assay type: functional, cell-based
A549 [6] = assay: Induction of apoptosis in human A549 cells assessed as cell shrinkage at 1 to 5 uM after 24 hrs by phase contrast microscopic method; assay type: functional, cell-based
A549 [7] = assay: Induction of apoptosis in human A549 cells assessed as cell detachment from substratum at 1 to 5 uM after 24 hrs by phase contrast microscopic method; assay type: functional, cell-based
A549 [8] = assay: Induction of apoptosis in human A549 cells assessed as nuclear fragmentation at 1 uM after 24 hrs by Hoechst […] staining based fluorescence microscopic method; assay type: functional, cell-based
A549 [9] = assay: Induction of apoptosis in human A549 cells assessed as chromatin condensation at 1 uM after 24 hrs by Hoechst […] staining based fluorescence microscopic method; assay type: functional, cell-based
A549 [10] = assay: Induction of apoptosis in human A549 cells assessed as increase in apoptotic nuclei at 3 to 5 uM after 24 hrs by Hoechst […] staining based fluorescence microscopic method; assay type: functional, cell-based
A549 [11] = assay: Induction of apoptosis in human A549 cells assessed as increase in ROS generation at 1 to 5 uM after 24 hrs by Carboxy-DCFDA dye based fluorescence microscopic method; assay type: functional, cell-based
A549 [12] = assay: Induction of apoptosis in human A549 cells assessed as viable cells at 1 uM after 24 hrs by Annexin V-FITC/propidium iodide staining based flow cytometry (reference value: 88.4%); assay type: functional; settings: A549, 24 h, read-out: Activity
A549 [13] = assay: Induction of apoptosis in human A549 cells assessed as early apoptotic cells at 1 uM after 24 hrs by Annexin V-FITC/propidium iodide staining based flow cytometry (reference value: 11.2%); assay type: functional
A549 [14] = assay: Induction of apoptosis in human A549 cells assessed as late apoptotic cells at 1 uM after 24 hrs by Annexin V-FITC/propidium iodide staining based flow cytometry (reference value: 0.4%); assay type: functional
A549 [15] = assay: Induction of apoptosis in human A549 cells assessed as necrotic cells at 1 uM after 24 hrs by Annexin V-FITC/propidium iodide staining based flow cytometry (reference value: 0%); assay type: functional
A549 [16] = assay: Induction of apoptosis in human A549 cells assessed as viable cells at 3 uM after 24 hrs by Annexin V-FITC/propidium iodide staining based flow cytometry (reference value: 88.4%); assay type: functional; settings: A549, 24 h, read-out: Activity
A549 [17] = assay: Induction of apoptosis in human A549 cells assessed as early apoptotic cells at 3 uM after 24 hrs by Annexin V-FITC/propidium iodide staining based flow cytometry (reference value: 11.2%); assay type: functional
A549 [18] = assay: Induction of apoptosis in human A549 cells assessed as late apoptotic cells at 3 uM after 24 hrs by Annexin V-FITC/propidium iodide staining based flow cytometry (reference value: 0.4%); assay type: functional
A549 [19] = assay: Induction of apoptosis in human A549 cells assessed as necrotic cells at 3 uM after 24 hrs by Annexin V-FITC/propidium iodide staining based flow cytometry (reference value: 0%); assay type: functional
A549 [20] = assay: Induction of apoptosis in human A549 cells assessed as viable cells at 5 uM after 24 hrs by Annexin V-FITC/propidium iodide staining based flow cytometry (reference value: 88.4%); assay type: functional; settings: A549, 24 h, read-out: Activity
A549 [21] = assay: Induction of apoptosis in human A549 cells assessed as early apoptotic cells at 5 uM after 24 hrs by Annexin V-FITC/propidium iodide staining based flow cytometry (reference value: 11.2%); assay type: functional
A549 [22] = assay: Induction of apoptosis in human A549 cells assessed as late apoptotic cells at 5 uM after 24 hrs by Annexin V-FITC/propidium iodide staining based flow cytometry (reference value: 0.4%); assay type: functional
A549 [23] = assay: Induction of apoptosis in human A549 cells assessed as necrotic cells at 5 uM after 24 hrs by Annexin V-FITC/propidium iodide staining based flow cytometry (reference value: 0%); assay type: functional
Calf thymus DNA [24] = assay: Binding affinity to calf thymus DNA assessed as dissociation constant after 5 mins by UV-Visible spectroscopic method; assay type: nucleic-acid assay, Bos taurus
Calf thymus DNA [25] = assay: Binding affinity to calf thymus DNA assessed as decrease in emission peak intensity by spectrofluorimetric method; assay type: nucleic-acid assay; settings: Bos taurus
Calf thymus DNA [26] = assay: Stabilization of calf thymus DNA assessed as hyperchromicity at DNA to compound ratio of 1:1 by circular dichroism spectropolarimetric analysis; assay type: nucleic-acid assay; settings: Bos taurus
Calf thymus DNA [27] = assay: Binding affinity to calf thymus DNA assessed as decrease in emission peak intensity using varying DNA level by spectrofluorimetric method; assay type: nucleic-acid assay; settings: Bos taurus
Calf thymus DNA [28] = assay: Binding affinity to calf thymus DNA assessed as hypochromicity after 5 mins by UV-Vis absorption spectral analysis; assay type: nucleic-acid assay; settings: Bos taurus
Calf thymus DNA [29] = assay: Binding affinity to calf thymus DNA assessed as hypochromicity at DNA to compound ratio of 1:1 to 1:2 by circular dichroism analysis; assay type: nucleic-acid assay; settings: Bos taurus
Calf thymus DNA [30] = assay: Binding affinity to calf thymus DNA assessed as unwinding effect at DNA to compound ratio of 1:1 to 1:2 by circular dichroism analysis; assay type: nucleic-acid assay; settings: Bos taurus
Calf thymus DNA [31] = assay: Binding affinity to calf thymus DNA assessed as confirmational change at DNA to compound ratio of 1:1 to 1:2 by circular dichroism analysis; assay type: nucleic-acid assay; settings: Bos taurus
A549 [32] = assay: Induction of apoptosis in human A549 cells after 24 hrs by Annexin V-FITC/propidium iodide staining based flow cytometry; assay type: functional, cell-based
Calf thymus DNA [33] = assay: Effect on calf thymus DNA stabilization assessed as increase in negative band intensity by circular dichroism spectropolarimetric analysis; assay type: nucleic-acid assay; settings: Bos taurus

SMILES: COc1cc(/C(=C\c2ccc(C(F)(F)F)cc2)C(=O)NCc2cc3c([nH]c4ccccc43)c(-c3cccc(F)c3)n2)cc(OC)c1OC
- IC50 (HeLa): 9.97 µM
- IC50 (DU-145): 1.51 µM
- IC50 (A549 [1]): 1.01 µM
- Activity (A549 [2]): Dose-dependent effect
- Activity (A549 [3]): Active
- inhibition [4]: Active
- Activity (A549 [5]): Active
- Activity (A549 [6]): Active
- Activity (A549 [7]): Active
- Activity (A549 [8]): Active
- Activity (A549 [9]): Active
- Activity (A549 [10]): Active
- Activity (A549 [11]): Active
- viability at 1 µM (A549 [12]): 69.7%
- Activity (A549 [13]): 20.4%
- Activity (A549 [14]): 6.8%
- Activity (A549 [15]): 3.2%
- viability at 3 µM (A549 [16]): 62.8%
- Activity (A549 [17]): 28.6%
- Activity (A549 [18]): 6.7%
- Activity (A549 [19]): 1.9%
- viability at 5 µM (A549 [20]): 59.3%
- Activity (A549 [21]): 33.4%
- Activity (A549 [22]): 4.9%
- Activity (A549 [23]): 2.4%
- Kd (Calf thymus DNA [24]): 71 µM
- Activity (Calf thymus DNA [25]): Active
- Activity (Calf thymus DNA [26]): Active
- Activity (Calf thymus DNA [27]): Active
- Activity (Calf thymus DNA [28]): Active
- Activity (Calf thymus DNA [29]): Active
- Activity (Calf thymus DNA [30]): Active
- Activity (Calf thymus DNA [31]): Active
- Activity (A549 [32]): Dose-dependent effect
- Activity (Calf thymus DNA [33]): Active
